Holding throughout (format): cell-based, human
Test [1] relates to H1299 cells. The test can be described thus: FACS detection of engineered DLL3 on the surface of transfected H1299 cells (Example 4). As to conditions: for percent positive (DLL3-positive cells) / expression level of DLL3 on the cell surface: H1299 cells transfected with construct; for expression level of DLL3 on the cell surface: fluorescently labeled anti-DLL3 antibody, FACS, compared to wild-type DLL3 (NP116, NP127). The source says:
Each of the six engineered DLL3 constructs ([…]) and two different wild-type DLL3 constructs (NP116 and NP127) was separately introduced to human non-small cell lung carcinoma, H1299 cells (also known as NCI-H1299 or CRL-5803) by transfection to analyze the expression of engineered DLL3. H1299 cells were then stained with fluorescently labeled anti-DLL3 antibodies and analyzed by fluorescence-activated cell sorting (FACS) to detect DLL3 expression. Panels A2-G2 in FIG. 8B, and NP116, NP127, NP244-NP249, and NP268 in FIG. 8C show the amount of DLL3 expressed on the cell surface corresponding to panels A1-G1 in FIG. 8A. […] Specifically, NP249 and NP247 increased percent positive to ˜80% and ˜94%, respectively (FIG. 8C).

The test system of test [2] is H1299 cells. The test can be described thus: cell killing assay, CellTiter Glo 2.0 (Example 7). As to conditions: treated with anti-DLL3-PBD, 72 hours, compared to NP116, FIG. 13B. The protocol: Next, H1299 cells stably expressing WT or engineered DLL3 were seeded 5,000 cells/well in 96 well plates. 24 hours after seeding, H1299 cells were treated with a titration of either an unconjugated anti-DLL3 antibody or an anti-DLL3 antibody conjugated to a PBD toxin (anti-DLL3-PBD). 72 hours after antibody treatment, cell viability was assessed using the CellTiter Glo 2.0 assay kit and analyzed on a Promega GloMax Navigator.
(In general: ATP-based viability assays read luminescence as a measure of living cells.)

Test [3] deals with H1299 cells. The test can be described thus: number of copies of anti-DLL3 antibody bound to DLL3 on the cell surface (quantification bead standard curve). The procedure: Next, a physical number of copies of anti-DLL3 antibody bound to DLL3 expressed on the cell surface was assessed. H1299 cells were seeded into 96 well plate. 24 hours after seeding, H1299 cells were transfected with nanoplasmid vectors comprising NP116 (wild-type control), NP247 (with a single DLL3 epitope in the CD8 scaffold), or NP298 (with two DLL3 epitopes in the CD8 scaffold) via lipofectamine according to the manufacture's protocols. H1299 cells were then stained with fluorescently labeled anti-DLL3 antibodies for FACS analysis. Cells and commercially available beads for epitope quantification were then stained with an anti-DLL3 secondary antibody conjugated to Alexa Fluor® 647 (AF647). H1299 cells were subsequently analyzed on a BD Biosciences FACSAria IIu (FIGS. 10A-10C). The number of epitopes were calculated by comparing the cell's expression to the quantification bead standard curve (FIGS. 10B-10C).
Each of NP247 and NP298 constructs and wild-type DLL3 construct (NP116) was separately introduced to H1299 cells by transfection to analyze the expression of engineered DLL3. […] H1299 cells stably expressing wild-type or engineered DLL3 and commercially available beads for epitope quantification were then stained with an anti-DLL3 secondary antibody conjugated to Alexa Fluor® 647 (AF647). H1299 cells were subsequently analyzed on a BD Biosciences FACSAria IIu. […]

Test [4] has as its system H1299 cells. As to the kind of experiment: in vitro cell killing assay with anti-DLL3-PBD (Example 4). As to conditions: H1299 cells transfected with construct, treated with anti-DLL3-PBD; compared to NP116 or NP127; FIG. 8D. The protocol: Next, in vitro cell killing assay was performed to determine the ability of anti-DLL3 antibodies conjugated with a cytotoxic payload (anti-DLL3-PBD) to induce cytotoxicity. The anti-DLL3-PBD was introduced to H1299 cells transfected with NP247 (G1 in FIG. 8A), NP249 (D1 in FIG. 8A), NP116 (wild-type control), or NP127 (wild-type control).

Entries after “also recorded” stand apart in the source; their conditions may differ.

As to “NP247: engineered DLL3 construct, DLL3 residues 27-254, CD8a hinge, CD28 transmembrane helix; SEQ ID NO: 37”, the “percent positive (DLL3-positive cells)” value in test [1] (FIG. 8C) was ~94%. For the same molecule, the “expression level of DLL3 on the cell surface” value (“expression level of DLL3” below) in test [1] was “increased the expression level of DLL3”. Further, the mean fluorescence intensity result in test [1] (compared to DLL3 wild-type or the DLL3 stable cell line, FIG. 8C) is on record as “significantly higher mean fluorescence intensity”. Besides, the “loss of viability / susceptibility to cell death of cells expressing the construct” value in test [2] is listed as “may be more susceptible to cell death; also recorded: substantial loss of viability”. Moreover, the “increase in copy number of anti-DLL3 antibodies compared to cells expressing NP116” value in test [3] (Example 5, H1299 cells transfected with nanoplasmid vectors, FIG. 10C) was found to be 13 fold; in test [3] (Example 7, FIG. 13A), 21 fold. For the same molecule, the “loss of viability of cells expressing the construct” value in test [4] is on record as “substantial loss in viability; also recorded: substantial loss of viability”.

“NP246: engineered DLL3 construct, DLL3 residues 27-492, CD8a SP/CD28 transmembrane helix; SEQ ID NO: 36”: the “expression level of DLL3” value in test [1] is given as “increased the expression level of DLL3”.

B1: NP249: engineered DLL3 construct, DLL3 residues 27-492 with CD73 SP/GPI-anchor motif; SEQ ID NO: 39, 46 (protein)
chain: MCPRAARAPATLLLALGAVLWPAAGAAGVFELQIHSFGPGPGPGAPRSPCSARLPCRLFFRVCLKPGLSEEAAESPCALGAALSARGPVYTEQPGAPAPDLPLPDGLLQVPFRDAWPGTFSFIIETWREELGDQIGGPAWSLLARVAGRRRLAAGGPWARDIQRAGAWELRFSYRARCEPPAVGTACTRLCRPRSAPSRCGPGLRPCAPLEDECEAPLVCRAGCSPEHGFCEQPGECRCLEGWTGPLCTVPVSTSSCLSPRGPSSATTGCLVPGPGPCDGNPCANGGSCSETPRSFECTCPRGFYGLRCEVSGVTCADGPCFNGGLCVGGADPDSAYICHCPPGFQGSNCEKRVDRCSLQPCRNGGLCLDLGHALRCRCRAGFAGPRCEHDLDDCAGRACANGGTCVEGGGAHRCSCALGFGGRDCRERADPCAARPCAHGGRCYAHFSGLVCACAPGYMGARCEFPVHPDGASALPAAPPGLRPGDPQRYLGGSSTGSHCHGSFSLIFLSLWAVIFVLYQ
B1: the “percent positive (DLL3-positive cells)” value in test [1] (FIG. 8C) was ~80%. Moreover, the “expression level of DLL3” value in test [1] is “increased the expression level of DLL3”. Besides, in test [4], the “loss of viability of cells expressing the construct” value is “substantial loss in viability; also recorded: substantial loss of viability”.

B2: NP245: engineered DLL3 construct, DLL3 residues 27-492 with PD-L1 signal peptide/transmembrane helix; SEQ ID NO: 35 (protein)
chain: MRIFAVFIFMTYWHLLNAAGVFELQIHSFGPGPGPGAPRSPCSARLPCRLFFRVCLKPGLSEEAAESPCALGAALSARGPVYTEQPGAPAPDLPLPDGLLQVPFRDAWPGTFSFIIETWREELGDQIGGPAWSLLARVAGRRRLAAGGPWARDIQRAGAWELRFSYRARCEPPAVGTACTRLCRPRSAPSRCGPGLRPCAPLEDECEAPLVCRAGCSPEHGFCEQPGECRCLEGWTGPLCTVPVSTSSCLSPRGPSSATTGCLVPGPGPCDGNPCANGGSCSETPRSFECTCPRGFYGLRCEVSGVTCADGPCFNGGLCVGGADPDSAYICHCPPGFQGSNCEKRVDRCSLQPCRNGGLCLDLGHALRCRCRAGFAGPRCEHDLDDCAGRACANGGTCVEGGGAHRCSCALGFGGRDCRERADPCAARPCAHGGRCYAHFSGLVCACAPGYMGARCEFPVHPDGASALPAAPPGLRPGDPQRYLLPLAHPPNERTHLVILGAILLCLGVALTFIFRHMGGGSGGGSAYPYDVPDYAAYPYDVPDYA
B2: in test [1], the “expression level of DLL3” value is given as “increased the expression level of DLL3”.

B3: NP244: engineered DLL3 construct, DLL3 residues 27-492 with EGFR signal peptide/transmembrane helix; SEQ ID NO: 34 (protein)
chain: MRPSGTAGAALLALLAALCPASRAAGVFELQIHSFGPGPGPGAPRSPCSARLPCRLFFRVCLKPGLSEEAAESPCALGAALSARGPVYTEQPGAPAPDLPLPDGLLQVPFRDAWPGTFSFIIETWREELGDQIGGPAWSLLARVAGRRRLAAGGPWARDIQRAGAWELRFSYRARCEPPAVGTACTRLCRPRSAPSRCGPGLRPCAPLEDECEAPLVCRAGCSPEHGFCEQPGECRCLEGWTGPLCTVPVSTSSCLSPRGPSSATTGCLVPGPGPCDGNPCANGGSCSETPRSFECTCPRGFYGLRCEVSGVTCADGPCFNGGLCVGGADPDSAYICHCPPGFQGSNCEKRVDRCSLQPCRNGGLCLDLGHALRCRCRAGFAGPRCEHDLDDCAGRACANGGTCVEGGGAHRCSCALGFGGRDCRERADPCAARPCAHGGRCYAHFSGLVCACAPGYMGARCEFPVHPDGASALPAAPPGLRPGDPQRYLSIATGMVGALLLLLVVALGIGLFMRRRHIVRKHMGGGSGGGSAYPYDVPDYAAYPYDVPDYA
For B3, the “expression level of DLL3” value in test [1] was “did not increase the expression level of DLL3”.

(Values after patent publication US20250144249A1, “METHODS USING SURFACE-EXPRESSIBLE ACTIVATABLE EPITOPES TO LOCALIZE AND/OR TREAT DISEASED CELLS” (EARLI Inc., priority 2022, published 2025).)
